The text below walks through data of US20050272677A1, “Delivery of a substance to a pre-determined site” (priority 2002, published 2005).

Data set [1] in a line: Gelation experiment (gel formation in solvents). More on the design: key to Gelation properties: g = gel; i = insoluble; p = precipitate; sol = soluble. Format: physicochemical. The protocol:
To obtain a gel or to thicken the solvent, the compound is mixed with the required solvent or a mixture of solvents in an amount between 0.01 and 50 wt. %, based on the weight of the composition. Typically, the dissolution of the components will be performed by heating (in some cases it may be helpful to homogenize the components, e.g., vortex) them together at temperatures of 20° C. to 200° C., preferably 50° C. to 150° C. Cooling these hot solutions to a preferred temperature in the range of −20° C. to 100° C., preferably 4° C. to 100° C. affords the gel or thickened solvent. […] In an alternative embodiment, the gelling agent is first dissolved in a polar or apolar solvent followed by the addition of another solvent or solvent mixture, thereby causing gelation to take place.
It will be understood that the use of the present gelling agents or thickeners to prepare a gel or to thicken a composition is also encompassed by the invention. As is well-known, gelling behavior of compounds or compositions is highly unpredictable. […] Preferably, the gelling phenomenon is thermoreversible.
In a typical gelation experiment, a carefully weighed amount of the dithienylcyclopentene derivative under investigation and 1 ml of the solvent are placed in a test tube, which is sealed and then heated until the compound is dissolved. The solution is allowed to cool to room temperature. […] The gelation process could be followed by UV-vis and CD spectroscopy as depicted in FIG. 58. At low concentrations (0.35 mM), compound D is dissolved in toluene. […] Increasing the concentration to 1.8 mM causes gelation of the solvent, which is accompanied by a change of the UV-visible spectrum, together with the appearance of a strong CD signal at 323 nm (FIG. 58, panels (a) and (c)). Similar changes in the UV-vis and CD spectrum are observed upon gelation of the 1.8 mM solution of D in toluene by cooling to a temperature below the sol-gel phase transition (from here on, referred to as gel(o)). From a plot of the increase of the CD signal versus the temperature, the sol-gel phase transition temperature of gel(o) was determined to be 29° C. for a 1.8 mM solution of D in toluene.

Data set [2] is described as follows: Gelation in the presence of surfactants and polymeric micelles. It counts as physicochemical. More on the design: key: G = gel; C = crystalline; G^a: ^a= not stable.
Data set [3] deals with pB104 strain (MscL null E. coli). The data set can be described thus: Growth assay of MscL mutants on agar plates with or without IPTG. Format: cell-based. The arrangement: key: ++++: growth equal to cells expressing wild-type MscL; growth is indicated by ++++ to −; growth is indicated by ++++ to −; growth is indicated by ++++ to −; −: an absence of growth. The settings on record: pB104 with Lac-inducible plasmid; for Growth on agar plates +IPTG: with IPTG; for Growth on agar plates −IPTG: without IPTG. The protocol: The constructs of the MscL-6His mutants were constructed using standard molecular biology techniques. The mutants were tested in the pB104 strain (MscL null E. coli) by a growth assay on agar plates with or without IPTG (K. Yoshimura et al., 1999, Biophys. J. 77:1960-1972).
The first phenotype (++) grows like the single G22S mutant.

Positions count from the first letter of the chain named. Names may count otherwise.

Take `CC(NC(=O)[C@H](Cc1ccccc1)NC(=O)[C@H]1C[C@@H](C(=O)N[C@@H](Cc2ccccc2)C(=O)N[C@H](C)C(=O)O)C[C@@H](C(=O)N[C@@H](Cc2ccccc2)C(=O)N[C@H](C)C(=O)O)C1)C(=O)O` (stereo partly shown) [gelator 11, CHexAm(L)Phe(D)AlaOH]: the solvents gelated result in data set [1] was “water and lower alcohols”.

Take `COC(=O)[C@H](Cc1c[nH]cn1)NC(=O)[C@H](CCSC)NC(=O)[C@@H]1C[C@H](C(=O)NC(CCSC)C(=O)N[C@H](Cc2c[nH]cn2)C(=O)OC)C[C@H](C(=O)N[C@@H](CCSC)C(=O)N[C@@H](Cc2c[nH]cn2)C(=O)OC)C1` (stereo partly shown) [gelator 14, CHexAmMetHisOMe]: the solvents gelated entry in data set [1] is listed as “water”.

For `Cc1sc(C(=O)N[C@H](C)C2CCCCC2)cc1C1=C(c2cc(C(=O)N[C@H](C)C3CCCCC3)sc2C)CCC1` [Compound E, 1,2-Bis(2′-methyl-5′-{(((R)-1-cyclohexylethyl)amino)carbonyl}thien-3′-yl)cyclopentene], the solvents gelated result in data set [1] was “hexadecane, cyclohexane, 1-phenyloctane, toluene, n-butylether, benzene, tetralin, 1,4-dioxane, and n-butyl acetate”.

Take racemic CHex-bisurea dihexylamine [5b]: the Gelation properties entry in data set [1] (1 N NaHCO3) is recorded as “sol”; in data set [1] (1 N NaOH) it was “g”; in data set [1] (25% Ammonia) it was “g”; in data set [1] (buffer PH 5.7) it was “sol”; in data set [1] (buffer PH 6.3), “sol”; in data set [1] (buffer PH 7.2), “g”. Moreover, the Gelation properties result in data set [1] (buffer PH 7.9) and in data set [1] (water) was “g” throughout.

With `O=C(OCCO)[C@H](Cc1ccccc1)NC(=O)[C@H]1C[C@@H](C(=O)N[C@@H](Cc2ccccc2)C(=O)OCCO)C[C@@H](C(=O)N[C@@H](Cc2ccccc2)C(=O)OCCO)C1` [gelator 2, CHexAmPheOCH2CH2OH], in data set [1], the solvents gelated entry was “water and lower alcohols”. The Gelation properties entry in data set [2] (Nonionic (Lactose der.) < CMC) is “G^a”; in data set [2] (Nonionic (Lactose der.) > CMC), “G^a”; in data set [2] (Pluronic P 105, 5 mg · ml^−1) it was “g^a”; in data set [2] (Pluronic P 105, 100 mg · ml^−1), “g^a”; in data set [2] (anionic (SDS) < CMC) it was “G^a”; in data set [2] (anionic (SDS) > CMC), “G^a”. Further, the Gelation properties result in data set [2] (cationic (CTAB) < CMC) and in data set [2] (cationic (CTAB) > CMC) was “G^a” in each case.

In the case of CHex-Am-Met-Am-Borate, the solvents gelated entry in data set [1] is “water and lower alcohols”.

For the molecule `O=C(N[C@@H](Cc1ccccc1)C(=O)O)[C@H]1C[C@@H](C(=O)N[C@H](Cc2ccccc2)C(=O)O)C[C@@H](C(=O)N[C@H](Cc2ccccc2)C(=O)O)C1` [10b, CHexAmPheOH (DDL)], the solvents gelated entry in data set [1] is “water”.

As for CHex-Am-Ser(Bzl)-Am-Borate, the solvents gelated entry in data set [1] is “water and lower alcohols”.

For `COC(=O)CC[C@H](NC(=O)[C@H]1C[C@@H](C(=O)N[C@@H](CCC(=O)OC)C(=O)OC)C[C@@H](C(=O)N[C@@H](CCC(=O)OC)C(=O)OC)C1)C(=O)OC` [gelator 7, CHexAmGluOMe], the solvents gelated entry in data set [1] is “both organic solvents and water”.

With `O=C(NC(Cc1ccccc1)C(=O)O)C1CC(C(=O)NC(Cc2ccccc2)C(=O)O)CC(C(=O)NC(Cc2ccccc2)C(=O)O)C1` (single isomer, unassigned) [LLL diasteroisomer, CHexAmPheOH], in data set [1], the solvents gelated entry was “only gelates lower alcohols”.

Regarding `O=C(O)CCNC(=O)[C@H](Cc1ccccc1)NC(=O)[C@H]1C[C@@H](C(=O)N[C@@H](Cc2ccccc2)C(=O)NCCC(=O)O)C[C@@H](C(=O)N[C@@H](Cc2ccccc2)C(=O)NCCC(=O)O)C1` [gelator 12, cHexAm(L)Phe(β)AlaOH], in data set [1], the solvents gelated entry was “water”.

Take `O=C(O)C(Cc1ccccc1)NC(=O)[C@H]1C[C@@H](C(=O)NC(Cc2ccccc2)C(=O)O)C[C@@H](C(=O)NC(Cc2ccccc2)C(=O)O)C1` (mixture of isomers) [10a, CHexAmPheOH (mixture of isomers)]: in data set [1], the solvents gelated entry is “water”.

As for `COC(=O)C[C@H](NC(=O)[C@H]1C[C@@H](C(=O)N[C@@H](CC(=O)OC)C(=O)OC)C[C@@H](C(=O)N[C@@H](CC(=O)OC)C(=O)OC)C1)C(=O)OC` [gelator 8, CHexAmAspOMe], the solvents gelated entry in data set [1] is “both organic solvents and water”.

CHex-Am-Phe-Am-Borate: the solvents gelated result in data set [1] is “water and lower alcohols”.

Turning to `Cc1sc(C(=O)Nc2ccccc2)cc1C1=C(c2cc(C(=O)Nc3ccccc3)sc2C)CCC1` [Compound C, 1,2-Bis(5′-(anilinocarbonyl)-2′-methyl-thien-3′-yl) cyclopentene], in data set [1], the solvents gelated was 1-phenyloctane, toluene, n-butylether, benzene, tetralin.

As to (1S,2S) CHex-bisurea dihexylamine [5a], the Gelation properties result in data set [1] (1 N NaHCO3) was “i”; in data set [1] (1 N NaOH) it was “i”; in data set [1] (25% Ammonia) it was “g”; in data set [1] (buffer PH 5.7), “sol”; in data set [1] (buffer PH 7.2) it was “p”; in data set [1] (buffer PH 7.9), “g”. Also, the Gelation properties entry in data set [1] (water) is “g”.

On to CHex-Am-Met-Am-EtOH, for which the solvents gelated result in data set [1] is on record as “water”.

As to CHexAmPheAmGluOH [gelator 13], the solvents gelated result in data set [1] was “water”.

For the molecule `CC(C)[C@H](NC(=O)[C@H]1C[C@@H](C(=O)N[C@H](C(=O)O)C(C)C)C[C@@H](C(=O)N[C@H](C(=O)O)C(C)C)C1)C(=O)O` [CHex-Am-Val-OH], in data set [1], the solvents gelated entry is “water”.

B1: E06/G22S (protein, UniProt P0A742 1-136, looked up, variant E6H G22S)
Large-conductance …: MSIIKHFREFAMRGNVVDLAVSVIIGAAFGKIVSSLVADIIMPPLGLLIGGIDFKQFAVTLRDAQGDIPAVVMHYGVFIQNVFDFLIVAFAIFMAIKLINKLNRKKEEPAAAPAPTKEEVLLTEIRDLLKEQNNRS
As to B1, in data set [3], the “Growth on agar plates +IPTG” value was “+++” and the “Growth on agar plates −IPTG” value is “++++”.

B2: M12H/G22S (protein, UniProt P0A742 1-136, looked up, variant M12H G22S)
Large-conductance …: B1 Large-conductance … with H6E, M12H
As to B2, in data set [3], the “Growth on agar plates +IPTG” value is reported as “++” and the “Growth on agar plates −IPTG” value is “++++”.

B3: M12H (protein, UniProt P0A742 1-136, looked up, variant M12H)
Large-conductance …: B1 Large-conductance … with H6E, M12H, S22G
Consider B3, for which, in data set [3], the “Growth on agar plates +IPTG” value is “++++” and the “Growth on agar plates −IPTG” value was “++++”.

B4: R13H (protein, UniProt P0A742 1-136, looked up, variant R13H)
Large-conductance …: B1 Large-conductance … with H6E, R13H, S22G
B4: in data set [3], the “Growth on agar plates +IPTG” value is recorded as “+++” and the “Growth on agar plates −IPTG” value was “++++”.

B5: R13H/G22S (protein, UniProt P0A742 1-136, looked up, variant R13H G22S)
Large-conductance …: B1 Large-conductance … with H6E, R13H
In the case of B5, in data set [3], the “Growth on agar plates +IPTG” value is listed as “−” and the “Growth on agar plates −IPTG” value is reported as “++++”.

B6: F10H/G22S (protein, UniProt P0A742 1-136, looked up, variant F10H G22S)
Large-conductance …: B1 Large-conductance … with H6E, F10H
Take B6: in data set [3], the “Growth on agar plates +IPTG” value is listed as “+” and the “Growth on agar plates −IPTG” value is reported as “++++”.

B7: A11H (protein, UniProt P0A742 1-136, looked up, variant A11H)
Large-conductance …: B1 Large-conductance … with H6E, A11H, S22G
With B7, in data set [3], the “Growth on agar plates +IPTG” value is “++++” and the “Growth on agar plates −IPTG” value is given as “++++”.

B8: A11H/G22S (protein, UniProt P0A742 1-136, looked up, variant A11H G22S)
Large-conductance …: B1 Large-conductance … with H6E, A11H
With B8, in data set [3], the “Growth on agar plates +IPTG” value is given as “++” and the “Growth on agar plates −IPTG” value is “++++”.

B9: F10H (protein, UniProt P0A742 1-136, looked up, variant F10H)
Large-conductance …: B1 Large-conductance … with H6E, F10H, S22G
On to B9, for which, in data set [3], the “Growth on agar plates +IPTG” value is reported as “++++” and the “Growth on agar plates −IPTG” value is reported as “++++”.
